Here are results for 37 molecules from US11020360B2, “Methods, compounds, compositions and vehicles for delivering 3-amino-1-propanesulfonic acid” (Bellus Health, Inc., priority 2006, dated 2021).

Where a name gives a salt, the structure may show the parent alone.

Data set [1] is described as follows: Human whole blood stability. It is filed as in vitro ADME. The settings on record: 37° C. As to the method: (§1) Test compounds were incubated for a total of 240 minutes at 37° C. in whole mouse and whole human blood. The compounds were added at time-point 0 and sample aliquots were withdrawn at each time point (usually 0, 60 and 240 minutes). The samples were extracted using protein precipitation. Analysis of extracted samples was achieved using HPLC with MS detection. Several types of HPLC columns and mobile phase were used depending of the polarity of the compound. The compound stability was determined by the % of compound remaining at 240 minutes (peak response of compound at 240 minutes/peak response at 0 minutes×100).

Data set [2] can be described thus: Mouse whole blood stability. It is filed as in vitro ADME. The note with it: 37° C. As to the method: as §1

For the molecule `CCC(C)[C@H](N)C(=O)NCCCS(=O)(=O)O` (stereo partly drawn) [Compound A11], the “Blood stability (% of compound remaining after 240 min.) Human Blood” value in data set [1] is reported as “+++ (+++: >75%)”. Further, the “Blood stability (% of compound remaining after 240 min.) Mouse Blood” value in data set [2] was “+++ (+++: >75%)”.
As for `CC(C)(CCC(=O)NCCCS(=O)(=O)O)C(=O)O` [Compound B4], in data set [1], the “Blood stability (% of compound remaining after 240 min.) Human Blood” value was “+++ (+++: >75%)”. The “Blood stability (% of compound remaining after 240 min.) Mouse Blood” value in data set [2] is “+++ (+++: >75%)”.
As for `CC(OC(=O)NCCCS(=O)(=O)O)OC(=O)c1ccccc1` (stereo not drawn) [Compound C16, 4-aza-7-methyl-6,8,-dioxa-5,9,-dioxo-9-phenyl-1-nonanesulfonic Acid Sodium Salt], in data set [1], the “Blood stability (% of compound remaining after 240 min.) Human Blood” value is “++ (++: 30-75%)”. In data set [2], the “Blood stability (% of compound remaining after 240 min.) Mouse Blood” value is reported as “+ (+: <30%)”.
For `CC(OC(=O)CCC(=O)O)OC(=O)NCCCS(=O)(=O)O` (stereo not drawn) [Compound C4], in that order: “+++ (+++: >75%)” and “++ (++: 30-75%)”.
`CC(=O)OC(C)OC(=O)NCCCS(=O)(=O)O` (stereo not drawn) [Compound C19, 4-aza-7-methyl-6,8,-dioxa-5,9,-dioxo-1-decanesulfonic acid Sodium Salt]: the “Blood stability (% of compound remaining after 240 min.) Mouse Blood” value in data set [2] is “+ (+: <30%)”.
In the case of `CC(C)C(OC(=O)NCCCS(=O)(=O)O)OC(=O)C(C)(C)C` (stereo not drawn) [Compound C23], the “Blood stability (% of compound remaining after 240 min.) Human Blood” value in data set [1] is recorded as “++ (++: 30-75%)”. The “Blood stability (% of compound remaining after 240 min.) Mouse Blood” value in data set [2] is “+ (+: <30%)”.
The like results for `CC(C)C[C@H](N)C(=O)NCCCS(=O)(=O)O` [Compound A5] were, in that order, “+ (+: <30%)” and “+ (+: <30%)”.
For `N[C@@H](Cc1ccccc1)C(=O)NCCCS(=O)(=O)O` [Compound A1], in data set [2], the “Blood stability (% of compound remaining after 240 min.) Mouse Blood” value is “+ (+: <30%)”.
Consider `CSCC[C@H](N)C(=O)NCCCS(=O)(=O)O` [Compound A6], for which, in data set [1], the “Blood stability (% of compound remaining after 240 min.) Human Blood” value is given as “++ (++: 30-75%)”. Besides, the “Blood stability (% of compound remaining after 240 min.) Mouse Blood” value in data set [2] is recorded as “+ (+: <30%)”.
On to `CC(OC(=O)NCCCS(=O)(=O)O)OC(=O)C(C)(C)C` (stereo not drawn) [Compound C15], for which, in data set [1], the “Blood stability (% of compound remaining after 240 min.) Human Blood” value is given as “++ (++: 30-75%)”. For the same molecule, the “Blood stability (% of compound remaining after 240 min.) Mouse Blood” value in data set [2] was “+ (+: <30%)”.
For `CC(OC(=O)CCCC(=O)OCc1ccccc1)OC(=O)NCCCS(=O)(=O)O` (stereo not drawn) [Compound C12], in that order: “++ (++: 30-75%)” and “+ (+: <30%)”.
`CC(=O)OC(OC(=O)NCCCS(=O)(=O)O)C(C)(C)C` (stereo not drawn) [Compound C24]: the “Blood stability (% of compound remaining after 240 min.) Human Blood” value in data set [1] is given as “++ (++: 30-75%)”. In addition, the “Blood stability (% of compound remaining after 240 min.) Mouse Blood” value in data set [2] is listed as “+ (+: <30%)”.
`C[C@H](N)C(=O)NCCCS(=O)(=O)O` [Compound A8]: the “Blood stability (% of compound remaining after 240 min.) Human Blood” value in data set [1] is given as “+ (+: <30%)”. In addition, the “Blood stability (% of compound remaining after 240 min.) Mouse Blood” value in data set [2] is “++ (++: 30-75%)”.
The like results for `CC(C)(CC(=O)O)CC(=O)NCCCS(=O)(=O)O` [Compound B3, 3,3-dimethyl-5-oxo-5-[(3-sulfopropyl)amino]pentanoic Acid Sodium Salt] were, in that order, “+++ (+++: >75%)” and “++ (++: 30-75%)”.
Turning to `CC(OC(=O)NCCCS(=O)(=O)O)OC(=O)C(C)C` (stereo not drawn) [Compound C18], the “Blood stability (% of compound remaining after 240 min.) Mouse Blood” value in data set [2] was “+ (+: <30%)”.
For the molecule `O=C(O)CCC(=O)NCCCS(=O)(=O)O` [Compound B5], in data set [1], the “Blood stability (% of compound remaining after 240 min.) Human Blood” value was “+++ (+++: >75%)”. For the same molecule, in data set [2], the “Blood stability (% of compound remaining after 240 min.) Mouse Blood” value is “+++ (+++: >75%)”.
In the case of `NCC(=O)NCCCS(=O)(=O)O` [Compound A10], in data set [1], the “Blood stability (% of compound remaining after 240 min.) Human Blood” value is on record as “++ (++: 30-75%)”. The “Blood stability (% of compound remaining after 240 min.) Mouse Blood” value in data set [2] was “++ (++: 30-75%)”.
For `CC(OC(=O)CC(C)(C)CC(=O)OCc1ccccc1)OC(=O)NCCCS(=O)(=O)O` (stereo not drawn) [Compound C7], the “Blood stability (% of compound remaining after 240 min.) Human Blood” value in data set [1] was “+++ (+++: >75%)”. For the same molecule, the “Blood stability (% of compound remaining after 240 min.) Mouse Blood” value in data set [2] was “+ (+: <30%)”.
Consider `CC(OC(=O)NCCCS(=O)(=O)O)OC(=O)C(C)(C)c1cccs1` (stereo not drawn) [Compound C13], for which the “Blood stability (% of compound remaining after 240 min.) Human Blood” value in data set [1] is “+ (+: <30%)”. The “Blood stability (% of compound remaining after 240 min.) Mouse Blood” value in data set [2] is on record as “+ (+: <30%)”.
As for `CC(OC(=O)CCCC(=O)O)OC(=O)NCCCS(=O)(=O)O` (stereo not drawn) [Compound C11], the “Blood stability (% of compound remaining after 240 min.) Human Blood” value in data set [1] is “+++ (+++: >75%)”. Moreover, in data set [2], the “Blood stability (% of compound remaining after 240 min.) Mouse Blood” value is “+++ (+++: >75%)”.
As for `CC(OC(=O)CCC(=O)OCc1ccccc1)OC(=O)NCCCS(=O)(=O)O` (stereo not drawn) [Compound C5], in data set [1], the “Blood stability (% of compound remaining after 240 min.) Human Blood” value is reported as “+ (+: <30%)”. Further, the “Blood stability (% of compound remaining after 240 min.) Mouse Blood” value in data set [2] is “+ (+: <30%)”.
Turning to `CC(C)(N)C(=O)NCCCS(=O)(=O)O` [Compound A14], in data set [1], the “Blood stability (% of compound remaining after 240 min.) Human Blood” value is reported as “+++ (+++: >75%)”. Besides, in data set [2], the “Blood stability (% of compound remaining after 240 min.) Mouse Blood” value was “+++ (+++: >75%)”.
Regarding `O=C(NCCCS(=O)(=O)O)[C@@H]1CCCN1` [Compound A3], the “Blood stability (% of compound remaining after 240 min.) Mouse Blood” value in data set [2] is “++ (++: 30-75%)”.
Turning to `CC(OC(=O)NCCCS(=O)(=O)O)OC(=O)C(C)(C)c1ccccc1` (stereo not drawn) [Compound C14], the “Blood stability (% of compound remaining after 240 min.) Human Blood” value in data set [1] was “+++ (+++: >75%)”. Moreover, the “Blood stability (% of compound remaining after 240 min.) Mouse Blood” value in data set [2] was “++ (++: 30-75%)”.
As for `CSCC[C@@H](N)C(=O)NCCCS(=O)(=O)O` [Compound A12], in data set [1], the “Blood stability (% of compound remaining after 240 min.) Human Blood” value is listed as “+++ (+++: >75%)”. For the same molecule, in data set [2], the “Blood stability (% of compound remaining after 240 min.) Mouse Blood” value is reported as “+++ (+++: >75%)”.
For `CC(OC(=O)CCCCC(=O)OCc1ccccc1)OC(=O)NCCCS(=O)(=O)O` (stereo not drawn) [Compound C10], the “Blood stability (% of compound remaining after 240 min.) Human Blood” value in data set [1] is reported as “+ (+: <30%)”. The “Blood stability (% of compound remaining after 240 min.) Mouse Blood” value in data set [2] was “+ (+: <30%)”.
As to `CC(OC(=O)CCCCC(=O)O)OC(=O)NCCCS(=O)(=O)O` (stereo not drawn) [Compound C9], in data set [1], the “Blood stability (% of compound remaining after 240 min.) Human Blood” value was “++ (++: 30-75%)”. The “Blood stability (% of compound remaining after 240 min.) Mouse Blood” value in data set [2] is given as “++ (++: 30-75%)”.
Regarding `CC(C)(C)C(=O)OC(OC(=O)NCCCS(=O)(=O)O)C1CCCCC1` (stereo not drawn) [Compound C20], the “Blood stability (% of compound remaining after 240 min.) Human Blood” value in data set [1] is on record as “++ (++: 30-75%)”. For the same molecule, in data set [2], the “Blood stability (% of compound remaining after 240 min.) Mouse Blood” value is “+ (+: <30%)”.
For `N[C@H](C(=O)NCCCS(=O)(=O)O)c1ccccc1` [Compound A15], the “Blood stability (% of compound remaining after 240 min.) Human Blood” value in data set [1] is recorded as “++ (++: 30-75%)”. In addition, in data set [2], the “Blood stability (% of compound remaining after 240 min.) Mouse Blood” value is “+ (+: <30%)”.
On to `CC(OC(=O)NCCCS(=O)(=O)O)OC(=O)C1CCCCC1` (stereo not drawn) [Compound C17], for which the “Blood stability (% of compound remaining after 240 min.) Mouse Blood” value in data set [2] is given as “+ (+: <30%)”.
Turning to `CC(=O)OC(OC(=O)NCCCS(=O)(=O)O)C(C)C` (stereo not drawn) [Compound C22], the “Blood stability (% of compound remaining after 240 min.) Human Blood” value in data set [1] is “++ (++: 30-75%)”. Also, the “Blood stability (% of compound remaining after 240 min.) Mouse Blood” value in data set [2] is reported as “+ (+: <30%)”.
For `CC(OC(=O)CC(C)(C)CC(=O)O)OC(=O)NCCCS(=O)(=O)O` (stereo not drawn) [Compound C8], in that order: “+++ (+++: >75%)” and “+++ (+++: >75%)”.
For `C[C@@H](N)C(=O)NCCCS(=O)(=O)O` [Compound A9], in that order: “+++ (+++: >75%)” and “+++ (+++: >75%)”.
For `N[C@@H](Cc1c[nH]c2ccccc12)C(=O)NCCCS(=O)(=O)O` [Compound A16], in that order: “+++ (+++: >75%)” and “++ (++: 30-75%)”.
For the molecule `N[C@@H](Cc1c[nH]cn1)C(=O)NCCCS(=O)(=O)O` [Compound A13], in data set [1], the “Blood stability (% of compound remaining after 240 min.) Human Blood” value is listed as “+++ (+++: >75%)”. Besides, the “Blood stability (% of compound remaining after 240 min.) Mouse Blood” value in data set [2] is “+++ (+++: >75%)”.
As for `N[C@@H](CCC(=O)OCc1ccccc1)C(=O)NCCCS(=O)(=O)O` [Compound A19], the “Blood stability (% of compound remaining after 240 min.) Human Blood” value in data set [1] is on record as “+ (+: <30%)”. In addition, the “Blood stability (% of compound remaining after 240 min.) Mouse Blood” value in data set [2] is on record as “+ (+: <30%)”.
In the case of `CC(=O)Oc1ccc(COC(=O)NCCCS(=O)(=O)O)cc1` [Compound C1, 3-(p-acetyloxybenzyloxycarbonyl)amino-1-propanesulfonic Acid Sodium Salt], the “Blood stability (% of compound remaining after 240 min.) Human Blood” value in data set [1] is given as “+ (+: <30%)”. Also, the “Blood stability (% of compound remaining after 240 min.) Mouse Blood” value in data set [2] is on record as “+ (+: <30%)”.
